This is an account of results in article PMC2810100 (Journal of medicinal chemistry, 2009).

For one assay, the system named is CpIMPDH. The settings on record: cited from earlier work.
For a further assay, the target named is T1, recombinant CpIMPDH (Cryptosporidium parvum, UniProt Q8T6T2).
T1 sequence (Q8T6T2 1-400): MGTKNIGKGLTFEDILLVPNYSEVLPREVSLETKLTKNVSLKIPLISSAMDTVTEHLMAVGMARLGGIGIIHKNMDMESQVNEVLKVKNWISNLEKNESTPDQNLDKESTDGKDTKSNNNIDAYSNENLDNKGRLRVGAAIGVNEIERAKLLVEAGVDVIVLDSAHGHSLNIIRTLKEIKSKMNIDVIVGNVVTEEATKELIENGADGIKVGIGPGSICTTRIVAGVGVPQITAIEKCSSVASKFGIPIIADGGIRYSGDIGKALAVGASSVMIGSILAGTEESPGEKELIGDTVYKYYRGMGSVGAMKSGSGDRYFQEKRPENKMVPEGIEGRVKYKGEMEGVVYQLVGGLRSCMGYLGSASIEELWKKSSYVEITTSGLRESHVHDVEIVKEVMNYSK
Type of assay: biochemical. The settings on record: without BSA.

With `CC(Oc1ccccc1)C(=O)Nc1ccc(Cl)cc1` (stereo not drawn) [Compound 5], in the assay on CpIMPDH, the “Mode of inhibition with respect to 1 (IMP)” value is listed as “uncompetitive inhibition” and the “Mode of inhibition with respect to NAD+” value is on record as “noncompetitive (mixed) inhibition”.

As for `C[C@@H](Oc1ccnc2ccccc12)c1cn(-c2ccc(Cl)c(Cl)c2)nn1` [Compound 32, (R)-4-(1-(1-(3,4-dichlorophenyl)-1H-1,2,3-triazol-4-yl)ethoxy)quinoline], the “Fold more potent than the (S)-enantiomer (33)” value at recombinant CpIMPDH is ~ 14 fold.
